Measured values published in patent US6391280B1, “J chain polypeptide targeting molecule linked to an imaging agent” (Epicyte Pharmaceutical, Inc., priority 1997, dated 2002).
Marks after values point to notes of the source that are not given here.

Test: Molar Relaxivities 1/T1 of Paramagnetic Compounds
Format: physicochemical
Conditions: in water at 10.7 MHz, 37° C. (values marked *)

SMILES | Relaxation rate, molar relaxivity 1/T1
O=C([O-])CN(CCN(CC(=O)[O-])CC(=O)O)CCN(CC(=O)[O-])CC(=O)O.[Gd+3] [GDDTP A] | 5.05* (mMs)^−1
[Cl][Gd]([Cl])[Cl] [GdCl] | 14.67* (mMs)^−1
[Cl][Mn][Cl] [MnCl2] | 9.32* (mMs)^−1
O=S(=O)([O-])c1ccc(-c2c3nc(c(-c4ccc(S(=O)(=O)[O-])cc4)c4ccc([n-]4)c(-c4ccc(S(=O)(=O)[O-])cc4)c4ccc([n-]4)c(-c4ccc(S(=O)(=O)[O-])cc4)c4nc2C=C4)C=C3)cc1.[Mn+3] [MnTPPS4] | 10.39* (mMs)^−1
